Laboratory results published in patent US8546611B2 (priority 2008, dated 2013).
Read-outs that look alike come from different tables or passages of the source.

Assays:
[1] = system: erythroid cells isolated from the bone marrow of laboratory mice males; conditions: feed with succinic acid 20 mg/kg body wt., not irradiated
Procedure: The test for genotoxicity was performed on young laboratory mice males (18-20 g; 6 animals in each group). […] The control animals were given water.

[2] = system: Wistar rat males; conditions: for Eosinophils, 6 h after / Lymphocytes, 6 h after / Number of leukocytes in 1 μl of blood, 6 h after / Segmentated cells, 6 h after: 6 h after immobilization; for Eosinophils, 6 h after / Lymphocytes, 6 h after / Number of leukocytes in 1 μl of blood, 6 h after / Segmentated cells, 6 h after / Eosinophils, before / Lymphocytes, before / Number of leukocytes in 1 μl of blood, before / Segmentated cells, before: 1.5 ml of 1% succinic acid perorally 10 min prior; for Eosinophils, before / Lymphocytes, before / Number of leukocytes in 1 μl of blood, before / Segmentated cells, before: at the moment of immobilization
Procedure: Examples, illustrating the method invented, are presented below. […] SA is tested on rats endured an immobilization stress; the parameter tested is lymphocytic composition of blood, which is determined before and after stress in a blood smear taken from the caudal vein. […] A detailed description of the testing technique is given in Example 13.
The animals were fixed while lying flat on their back, with their legs secured. […] Blood was taken from the caudal vein: 10 μl for counting blood corpuscles and 20 μl for preparing a smear with its subsequent staining by Romanovsky-Giemsa).
First group: 10 min prior immobilization, the animals were injected (perorally, with the help of a stomach pump) with 1.5 ml of 1% starch solution. […] Blood was taken from the caudal vein at the moment of immobilization and 6 hours later, and stained blood smears were prepared to calculate the leukogram.

[3] = system: patients with cardiac insufficiency; conditions: for patients of functional class I, day 30 / patients of functional class II, day 30 / patients of functional class III, day 30 / patients of functional class IV, day 30 / patients of functional class I, day 60 / patients of functional class II, day 60 / patients of functional class III, day 60 / patients of functional class IV, day 60 / patients of functional class I, day 90 / patients of functional class II, day 90 / patients of functional class III, day 90 / patients of functional class IV, day 90: 100 mg twice per day with standard therapy; for patients of functional class I, day 30 / patients of functional class II, day 30 / patients of functional class III, day 30 / patients of functional class IV, day 30: after 30 days; for patients of functional class I, day 60 / patients of functional class II, day 60 / patients of functional class III, day 60 / patients of functional class IV, day 60: after 60 days; for patients of functional class I, day 90 / patients of functional class II, day 90 / patients of functional class III, day 90 / patients of functional class IV, day 90: after 90 days; for patients of functional class I, day 0 / patients of functional class II, day 0 / patients of functional class III, day 0 / patients of functional class IV, day 0: with standard therapy, before treatment
Procedure: The test for cardiotonic activity of product samples was performed by measuring the dynamics of alteration of the functional class of cardiac failure. The functional class can be determined quite accurately by analyzing the everyday life activities according to a specific activity scale. The authors of this technique suppose that the criteria developed by NYHA (New York Heart Association) cannot provide accurate determination of functional class, since widely used terms, such as “everyday physical activity”, “sub-everyday activity” are not specific. On the basis of multiple tests, in which patients exercised on a treadmill, the authors calculated a scale of metabolic expenses for each kind of life activity (see Goldman L., Hashimoto B., Cook F. et al., Comparative reproducibility and validity of systems for assessing cardiovascular functional class: advantages of a new specific activity scale (1981) Circulation 64 (6):1227-34). This inquiry is designed to be used by medical personnel, interviewing a patient. After calculating the sum of possible energy expenses, the functional class of the patient is determined according to the summary criteria of the specific activity scale (Table 6).
In the tests, the patient groups were formed so that the people of the same functional class were equally distributed among different groups. Severe patients (of IV functional class; those having oncological diseases or suffered myocardial infarction/stroke to the brain 60 days or less before) were not admitted to the tests. The distribution of patients among groups was governed by a random number generator. The tests were carried out by the following protocol. Each patient took 100 mg of the preparation twice per day (in the morning and after lunch) during 3 months—against the background of a standard therapy administered by a physician. […] All the samples and placebo were encoded before sending into the clinic, so none of those involved into the tests (patients, physicians, medical personnel and the manager of tests) was aware of the nature of samples.
The functional class of patients was determined several times: at the beginning of tests (before the formation of test groups) and after 30, 60 and 90 days of treatment with the test samples. The estimation was performed on the basis of the activity scale (Table 7).

[4] = system: white rat females; conditions: in vivo; for Total died / died, 13 day / died, 14 day: female, 5000 mg/kg; for Total died: 14 days
[5] = system: erythroid cells isolated from the bone marrow of gamma-irradiated laboratory mice males; experiment: Radioprotective properties (micronucleus test after gamma irradiation); conditions: for Number of micronuclei per 2000 cells (radioprotective properties): mice irradiated with gamma rays 1.3 Gy, then fed 48 h succinic acid 20 mg/kg body wt., critical value 16±2

SMILES | Number of micronuclei per 2000 cells (genotoxicity) ([1]; norm 5.0±1.0) | patients of functional class I, day 30 [3] | patients of functional class II, day 30 [3] | patients of functional class III, day 30 [3] | patients of functional class IV, day 30 [3] | patients of functional class I, day 60 [3] | patients of functional class II, day 60 [3] | patients of functional class III, day 60 [3] | patients of functional class IV, day 60 [3] | patients of functional class I, day 90 [3] | patients of functional class II, day 90 [3] | patients of functional class III, day 90 [3] | patients of functional class IV, day 90 [3] | patients of functional class I, day 0 ([3]; 100 mg twice per day, 3 months) | patients of functional class II, day 0 ([3]; 100 mg twice per day, 3 months) | patients of functional class III, day 0 ([3]; 100 mg twice per day, 3 months) | patients of functional class IV, day 0 ([3]; 100 mg twice per day, 3 months) | Total died [4] | Number of micronuclei per 2000 cells (radioprotective properties) [5] | died, 13 day [4] | further results
O=C(O)CCC(=O)O [Example 1, succinic acid, reference compound] | 5.5 ± 0.8 | 8 | 7 | 5 | 0 | 9 | 6 | 5 | 0 | 9 | 7 | 4 | 0 | 8 | 7 | 5 | 0 | 0 | 25.5 ± 1.0 |  | Eosinophils, 6 h after ([2]; listed as Ex. 1): 0%; Lymphocytes, 6 h after ([2]; listed as Ex. 1): 69 ± 5%; Number of leukocytes in 1 μl of blood, 6 h after ([2]; listed as Ex. 1): 7900; Segmentated cells, 6 h after ([2]; listed as Ex. 1): 29 ± 3%; Eosinophils, before ([2]; listed as Ex. 1): 2 ± 4%; Lymphocytes, before ([2]; listed as Ex. 1): 78 ± 4%; Number of leukocytes in 1 μl of blood, before ([2]; listed as Ex. 1): 5900; Segmentated cells, before ([2]; listed as Ex. 1): 21 ± 2%; animals died, extra test with doubled dose ([4]; 10000 mg/kg): Not a single animal died
O=C(O)CCC(=O)O [Example 5, succinic acid] | 5.0 ± 1.0 | 8 | 7 | 5 | 0 | 9 | 7 | 4 | 0 | 14 | 5 | 1 | 0 | 8 | 7 | 5 | 0 | 3 | 12.0 ± 1.2 | 2 | Eosinophils, 6 h after ([2]; listed as Ex. 5): 1.5 ± 8%; Lymphocytes, 6 h after ([2]; listed as Ex. 5): 75 ± 4%; Number of leukocytes in 1 μl of blood, 6 h after ([2]; listed as Ex. 5): 7200; Segmentated cells, 6 h after ([2]; listed as Ex. 5): 24 ± 3%; Eosinophils, before ([2]; listed as Ex. 5): 2 ± 6%; Lymphocytes, before ([2]; listed as Ex. 5): 76 ± 5%; Number of leukocytes in 1 μl of blood, before ([2]; listed as Ex. 5): 6000; Segmentated cells, before ([2]; listed as Ex. 5): 22 ± 4%; died, 14 day [4]: 1
O=C(O)CCC(=O)O [“Natural” SA, succinic acid, reference compound] |  | 10 | 6 | 4 | 0 | 9 | 8 | 3 | 0 | 14 | 5 | 1 | 0 | 8 | 7 | 4 | 0 | 3 |  | 1 | Number of micronuclei per 2000 cells (genotoxicity) ([1]; norm 5.0±1.0, listed as “Natural acid”): 5.0 ± 1.0; adaptogenic properties, conclusion in words ([2]; 6-hour immobilization stress, Wistar rats, listed as “natural” acid): evident adaptogens; Eosinophils, 6 h after [2]: 1.5 ± 3%; Lymphocytes, 6 h after [2]: 74 ± 4%; Number of leukocytes in 1 μl of blood, 6 h after [2]: 7100; Segmentated cells, 6 h after [2]: 25 ± 3%; Eosinophils, before [2]: 2 ± 4%; Lymphocytes, before [2]: 75 ± 4%; Number of leukocytes in 1 μl of blood, before [2]: 5900; Segmentated cells, before [2]: 23 ± 2%; cardiotonic properties / dynamics of functional class, conclusion in words ([3]; 100 mg twice per day, 3 months, listed as “natural” acid): high cardiotonic properties; died, 14 day [4]: 2; radioprotective effect, conclusion in words ([5]; gamma rays 1.3 Gy, 20 mg/kg body wt., 48 h, 20 mg/kg): evident radioprotectors; Number of micronuclei per 2000 cells (radioprotective properties) ([5]; listed as “Natural acid”): 12.0 ± 1.6
